From paper PMC6908736, “Toxic Tau Oligomers Modulated by Novel Curcumin Derivatives” (Scientific Reports, 2019) come the findings set out here.

The IC50 is the concentration needed to halve the response being measured.

Read-outs that look alike come from different tables or passages of the source.

Test [1] relates to human neuroblastoma SH-SY5Y cell line. As to the kind of experiment: MTS cytotoxicity of curcumin derivatives (dose-response). Format: cell-based. Details: LogIC50 (cell viability): unit not given here. Conditions: for IC50: Homo sapiens; for LogIC50 (cell viability): n = 3. The text has this:
Six compounds were selected due to their higher activity in modulating toxic TauO and subjected to additional in vitro testing to validate their effects on TauO (Fig. 2B). […] Compounds CL3,8 were obtained through a double aldol condensation on the diacetyl of the appropriate aromatic aldehyde 1[58]. Similarly, HemiC9 was obtained by means of Claisen-Schmidt Aldol condensation of acetone under basic conditions (Fig. 2C)[59]. Heterocyclic derivative CH8 was obtained in a two-step procedure from the corresponding cinnamic acid derivative 2 (Fig. 2D)[60]. […] This method allows the obtainment of target products avoiding the use of protecting groups. One of the criteria used to select these small molecules was evaluating their toxicity profile. The cytotoxicity of each curcumin derivative was examined by exposing the cultured human neuroblastoma SH-SY5Y cell line to a continuous range of small molecule concentrations (0–800 μM) and monitoring cell survival after 24 hours of treatment by an MTS assay. […] Human neuroblastoma SH-SY5Y cells (ATCC CRL-2266) were maintained in DMEM and grown to confluence in 96-well plates as previously described. […] The dose-response curve was used to calculate the concentration of the compound required for 50% inhibition of cell viability (IC50). Cell viability was corrected by the vehicle background. All measurements were performed in triplicate. The cytotoxic effect was determined using MTS assay (G3582, Promega) for assessing cell viability following the manufacturers’ instructions. Optical density (OD) was measured at 490 nm with POLARstar OMEGA plate reader (BMG Labtechnologies). Cell viability was calculated as the percentage of the OD value of treated cells compared to untreated controls, according to the following equation: Viability = (OD SAMPLE/OD CONTROL) × 100%.

The target in test [2] is T1, preformed recombinant tau oligomers (TauO) (Homo sapiens, UniProt P10636).
T1 construct: made in house
As to the kind of experiment: Direct ELISA, dot blot and filter trap of tau oligomers (T22, TOMA1, Tau 5). Conditions: curcumin 1:5 and 1:10 molar ratio, vs untreated TauO. Format: biochemical. The procedure: (§1) A volume of 100 μL of tau oligomers (1 µg/μL) was incubated with curcumin (1:5 and 1:10 molar ratio) and curcumin derivatives (1:5 molar ratio). Compounds were dissolved in EtOH 75%/DMSO (5:1) at a final concentration of 5 mM and diluted in 1X PBS or ddH2O for incubation or toxicity assay (final concentration 5 μM). Tau oligomers in the presence of the small molecules and controls were incubated on an orbital shaker, without stirring, for 16 hours under oligomerization conditions as previously described.
Dot blot assay to detect tau oligomers in the absence or presence of small molecules was performed as previously described. Briefly, 1.5 μl of each end-product reaction was applied onto nitrocellulose membranes and then blocked with 10% nonfat milk in TBS-T overnight at 4 °C. The next day, membranes were probed with the oligomer-specific tau antibodies, T22 (1:250), TOMA1(1:200) and total tau antibody, Tau 5, (1:10000) diluted in 5% nonfat milk for 1 hour at RT. […]
ELISA assay was conducted as previously described. […] Plates were washed three times with TBS-T and developed with 3,3,5,5-tetramethylbenzidine (TMB + Substrate- Chromogen, S1599, Dako) The reaction was stopped using 100 μL of 1 M HCl and absorbance was read at 450 nm using POLARstar OMEGA plate reader. […]
A general note: An ELISA detects its analyte on a solid surface through an enzyme-linked reagent.

The target in test [3] is T1, preformed recombinant tau oligomers (TauO). As to the kind of experiment: Western blot of tau oligomers with and without compounds. Format: biochemical. Conditions: curcumin 1:5 and 1:10 molar ratio. The procedure: The tau pellet was treated with 8 M urea followed by overnight dialysis against 1X phosphate-buffered saline (PBS) pH 7.4. Tau concentration was measured using bicinchoninic acid protein assay (Pierce BCA Protein Assay Kit, 23225, Thermo Fisher Scientific) and normalized to 1 mg/mL by adding 1X PBS. Aliquots of tau monomer in PBS were stored at -20 °C. Each 300 µL of tau stock (0.3 mg) was added to 700 µL of 1X PBS and incubated for 1 hour on an orbital shaker at room temperature. After shaking, the resulting tau oligomers were purified by fast protein liquid chromatography (FPLC, Superdex 200 Increase 10/300 column, Amersham Biosciences).
as §1
An amount of 3 µg of each sample were resolved on a pre-cast NuPAGE 4–12% Bis-Tris Gels for SDS-PAGE (NP0335BOX, Invitrogen) and transferred to nitrocellulose membranes. […]

The subject of test [4] is SH-SY5Y cells exposed to TauO. The test is described as follows: MTS assay of TauO-induced toxicity in SH-SY5Y. Format: cell-based, human. Conditions: 2 µM TauO, curcumin final concentration 10 μM, 24 hours. The procedure:
Human neuroblastoma SH-SY5Y cells (ATCC CRL-2266) were maintained in DMEM and grown to confluence in 96-well plates as previously described. […] The dose-response curve was used to calculate the concentration of the compound required for 50% inhibition of cell viability (IC50).
Cell viability was corrected by the vehicle background. All measurements were performed in triplicate. The cytotoxic effect was determined using MTS assay (G3582, Promega) for assessing cell viability following the manufacturers’ instructions. Optical density (OD) was measured at 490 nm with POLARstar OMEGA plate reader (BMG Labtechnologies). Cell viability was calculated as the percentage of the OD value of treated cells compared to untreated controls, according to the following equation: Viability = (OD SAMPLE/OD CONTROL) × 100%.
On the technique in general: Tetrazolium assays rely on reduction of a dye to a coloured formazan, in cell work by metabolically active cells.

Setting [5] is: MTS, 0–800 μM, 24 hours, n = 3, read-out: IC50 (cell viability).

T1 sequence (P10636 1-441 isoform P10636-8): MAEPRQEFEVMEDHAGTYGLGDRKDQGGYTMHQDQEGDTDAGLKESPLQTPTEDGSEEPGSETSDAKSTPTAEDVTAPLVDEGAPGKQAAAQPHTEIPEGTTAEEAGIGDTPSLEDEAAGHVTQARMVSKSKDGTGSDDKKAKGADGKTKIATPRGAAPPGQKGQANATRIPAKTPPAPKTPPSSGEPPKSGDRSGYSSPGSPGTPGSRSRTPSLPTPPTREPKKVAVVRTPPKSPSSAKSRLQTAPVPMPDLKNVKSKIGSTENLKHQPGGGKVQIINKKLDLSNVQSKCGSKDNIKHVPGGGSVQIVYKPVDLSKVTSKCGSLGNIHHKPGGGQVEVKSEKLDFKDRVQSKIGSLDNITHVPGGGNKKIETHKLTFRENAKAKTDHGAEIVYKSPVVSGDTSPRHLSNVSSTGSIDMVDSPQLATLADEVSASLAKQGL

Consider `O=C(/C=C/c1ccc(Cl)cc1)COC(=O)/C=C/c1ccc(Cl)cc1` [Cal7], for which, in test [1] (24 h, read-out: IC50 (cell viability)), the IC50 was determined as 191 µM. Further, in test [1] (MTS, 0–800 μM, 24 hours), the “LogIC50 (cell viability)” value was found to be 2.281.
Turning to `CN(C)c1ccc(/C=C/c2nnc(/C=C/c3ccc(N(C)C)cc3)o2)cc1` [CH8], the half-inhibitory concentration (IC50) in test [1] (setting [5]) came out at 110 µM. The “LogIC50 (cell viability)” value in test [1] (MTS, 0–800 μM, 24 hours) is reported as 2.042.
Consider `O=C(/C=C/c1ccccc1Cl)C(=O)/C=C/c1ccccc1Cl` [CL8], for which the IC50 in test [1] (setting [5]) is 54.5 µM. Further, in test [1] (MTS, 0–800 μM, 24 hours), the “LogIC50 (cell viability)” value is on record as 1.737.
`COc1cc(/C=C/C(=O)CC(=O)/C=C/c2ccc(O)c(OC)c2)ccc1O` [curcumin]: the “oligomer level, T22 immunoreactivity (direct ELISA and dot blot)” value in test [2] is listed as “significant decrease in oligomers”. The “aggregation state of TauO by Western blot (T22, Tau 5, Tau 13)” value in test [3] was “promoting the formation of higher molecular weight tau aggregates”. Moreover, the “cell viability after TauO in the presence of compound” value in test [4] is reported as “rescued cells from TauO-induced toxicity”.
For the compound `O=C(/C=C/c1ccc(F)cc1)C(=O)/C=C/c1ccc(F)cc1` [CL3], the IC50 in test [1] (setting [5]) was found to be 56.1 µM. In test [1] (MTS, 0–800 μM, 24 hours), the “LogIC50 (cell viability)” value is given as 1.749.
Consider `CC(=O)/C=C/c1ccc(C)cc1` [HemiC9], for which the IC50 in test [1] (setting [5]) is 124 µM.
